Values of other authors, collected in EP4527389A1 (Laboratorios Farmacéuticos Rovi S.A., priority 2022, dated 2023).

test system: not given; details: daily paroxetine 20 mg in patients stabilized on risperidone (4 to 8 mg/day)

Row | SMILES | decrease of 9-hydroxyrisperidone concentrations | increase of concentrations of the active moiety (the sum of risperidone plus 9-hydroxyrisperidone) | increase of mean plasma concentrations of risperidone
1 | Fc1ccc([C@@H]2CCNC[C@H]2COc2ccc3c(c2)OCO3)cc1 [paroxetine] | approximately 10% | approximately 1.4 fold | approximately 4 fold

target: CYP2D6 (cytochrome P450 2D6) enzyme (Homo sapiens, UniProt P10635); details: three categories: strong, moderate, weak
Sequence (P10635 whole entry): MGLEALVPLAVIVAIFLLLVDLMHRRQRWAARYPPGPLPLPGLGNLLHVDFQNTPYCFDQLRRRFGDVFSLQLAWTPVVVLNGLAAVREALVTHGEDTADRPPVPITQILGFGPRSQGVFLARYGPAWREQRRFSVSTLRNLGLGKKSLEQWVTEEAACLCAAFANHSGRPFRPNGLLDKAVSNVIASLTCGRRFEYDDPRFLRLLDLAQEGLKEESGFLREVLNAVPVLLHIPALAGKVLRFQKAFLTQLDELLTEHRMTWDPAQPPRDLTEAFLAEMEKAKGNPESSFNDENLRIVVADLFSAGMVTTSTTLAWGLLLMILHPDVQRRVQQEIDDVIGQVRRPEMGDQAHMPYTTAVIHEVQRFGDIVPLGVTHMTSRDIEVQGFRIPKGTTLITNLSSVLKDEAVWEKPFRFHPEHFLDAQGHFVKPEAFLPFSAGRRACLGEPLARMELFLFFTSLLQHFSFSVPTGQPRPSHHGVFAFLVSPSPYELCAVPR

Row | SMILES | CYP2D6 enzyme inhibitor category
2 | C[C@]12CC[C@H](O)CC1=CC[C@@H]1[C@@H]2CC[C@]2(C)C(c3cccnc3)=CC[C@@H]12 [abiraterone] | moderate inhibitor
3 | Cc1ccc(-c2cc(C(F)(F)F)nn2-c2ccc(S(N)(=O)=O)cc2)cc1 [celecoxib] | weak inhibitor
4 | CN/C(=N/CCSCc1nc[nH]c1C)NC#N [cimetidine] | weak inhibitor
5 | C[C@@H](NCCCc1cccc(C(F)(F)F)c1)c1cccc2ccccc12 [cinacalcet] | moderate inhibitor
6 | CN1C(=O)CC(=O)N(c2ccccc2)c2cc(Cl)ccc21 [clobazam] | weak inhibitor
7 | CC(C)c1nc(CN(C)C(=O)N[C@@H](CCN2CCOCC2)C(=O)N[C@H](CC[C@H](Cc2ccccc2)NC(=O)OCc2cncs2)Cc2ccccc2)cs1 [cobicistat] | weak inhibitor
8 | CN(C)CCC[C@@]1(c2ccc(F)cc2)OCc2cc(C#N)ccc21 [escitalopram] | weak inhibitor
9 | CC(CCc1ccccc1)NCC(O)c1ccc(O)c(C(N)=O)c1 (stereo not drawn) [labetalol] | weak inhibitor
10 | C[C@H]1CNCCc2ccc(Cl)cc21 [lorcaserin] | moderate inhibitor
11 | Nc1nc(CC(=O)Nc2ccc(CCNC[C@H](O)c3ccccc3)cc2)cs1 [mirabegron] | moderate inhibitor
12 | Fc1ccc([C@@H]2CCNC[C@H]2COc2ccc3c(c2)OCO3)cc1 [paroxetine] | strong inhibitor
13 | C=C[C@H]1C[N@@]2CC[C@H]1C[C@@H]2[C@@H](O)c1ccnc2ccc(OC)cc12 [quinidine] | strong inhibitor
14 | CN[C@H]1CC[C@@H](c2ccc(Cl)c(Cl)c2)c2ccccc21 [sertraline] | weak inhibitor
15 | CN(C/C=C/C#CC(C)(C)C)Cc1cccc2ccccc12 [terbinafine] | strong inhibitor
16 | CCCS(=O)(=O)Nc1ccc(F)c(C(=O)c2c[nH]c3ncc(-c4ccc(Cl)cc4)cc23)c1F [vemurafenib] | weak inhibitor
